Measurements: patent US20240270762A1, “PENICILLIN-BINDING PROTEIN INHIBITORS” (priority 2021, published 2024)
≈ marks a conversion by molar mass, not a printed value.

What was measured:
Experiment in all cases: Liquid broth MIC in Fastidious broth
N. gonorrhoeae WHO L = details: Neisseria gonorrhoeae, read-out: Minimum Inhibitory Concentration (MIC), N. gonorrhoeae WHO L
Method: Liquid broth-based assays were used for antibacterial testing of PBP inhibitors in Neisseria gonorrhoeae. Briefly, cryo-preserved bacterial cultures of clinical strains were streaked for isolation on Chocolate Agar (72 g/L (2×) GC Agar Base (BD #228950) and 2% (2×) Hemoglobin was autoclaved at 121° C. for 20 minutes to sterilize. Once cooled to ˜50° C. the 2×GC Agar Base and 2× Hemoglobin solutions are combined and 1% IsoVitaleX Enrichment (BD #211876) was added to the solution). Strains were incubated at 36° C. and 5% CO2 to allow growth of colonies, 24 hours before inoculum preparation. 2-fold serial dilutions of test compounds were conducted in a 96 well plate with a final volume of 75 μL per well at 2-fold the final desired concentration in Fastidious broth (Remel #R07664). For preparation of assay inoculum, a direct suspension was prepared by aseptically swabbing 10-15 colonies from agar plates into culture tubes containing 2 mL of fresh sterile saline. After the dilution plates were set up, direct suspensions were then diluted in a cuvette containing sterile saline and the optical density was measured at 600 nm. Inocula were diluted such that 75 μL of this culture in Fastidious broth results in a starting bacterial concentration of 5×10^5 CFU/mL when added to the dilution plates. The plates were incubated for ˜24 hours at 36° C. and 5% CO2.

N. gonorrhoeae WHO K = details: Neisseria gonorrhoeae, read-out: Minimum Inhibitory Concentration (MIC), N. gonorrhoeae WHO K
N. gonorrhoeae WHO Z = details: Neisseria gonorrhoeae, read-out: Minimum Inhibitory Concentration (MIC), N. gonorrhoeae WHO Z
N. gonorrhoeae WHO Q = details: Neisseria gonorrhoeae, read-out: Minimum Inhibitory Concentration (MIC), N. gonorrhoeae WHO Q
N. gonorrhoeae WHO X = details: Neisseria gonorrhoeae, read-out: Minimum Inhibitory Concentration (MIC), N. gonorrhoeae WHO X
N. gonorrhoeae FA1090 = details: Neisseria gonorrhoeae, FA1090, read-out: Minimum Inhibitory Concentration (MIC), N. gonorrhoeae FA 1090
[1] = test system: N. gonorrhoeae ATCC 49226; details: Neisseria gonorrhoeae, ATCC49226, read-out: Minimum Inhibitory Concentration (MIC), N. gonorrhoeae ATCC 49226

Row | SMILES | MIC (N. gonorrhoeae WHO L) [µg/mL] | MIC (N. gonorrhoeae WHO K) [µg/mL] | MIC (N. gonorrhoeae WHO Z) [µg/mL] | MIC (N. gonorrhoeae WHO Q) [µg/mL] | MIC (N. gonorrhoeae WHO X) [µg/mL] | MIC (N. gonorrhoeae FA1090) [µg/mL] | MIC [1] [µg/mL]
1 | O=C(O)c1cccc2c1OB(O)[C@@H](NC(=O)C(NC(=O)N1CCN(CC(F)(F)F)C(=O)C1=O)c1ccc(P(=O)(O)O)cc1)C2 (stereo partly drawn) [Example 4, (3R)-3-(2-(2,3-dioxo-4-(2,2,2-trifluoroethyl)piperazine-1-carboxamido)-2-(4-phosphonophenyl)acetamido)-2-hydroxy-3,4-dihydro-2H-benzo[e][1,2]oxaborinine-8-carboxylic acid] | 4 to 8 (≈ 6.23 to 12.5 µM) | 1 to 2 (≈ 1.56 to 3.11 µM) | 1 to 2 (≈ 1.56 to 3.11 µM) | 1 to 2 (≈ 1.56 to 3.11 µM) | 4 to 8 (≈ 6.23 to 12.5 µM) | < 1 | < 1
2 | CS(=O)(=O)N1CCN(C(=O)N[C@@H](C(=O)N[C@H]2Cc3cccc(C(=O)O)c3OB2O)c2ccc(P(=O)(O)O)cc2)C1=O (single isomer, unassigned) [Example 6] | < 1 | < 1 | < 1 | < 1 | < 1 | < 1 | < 1
3 | CCN1CCN(C(=O)NC(C(=O)N[C@H]2Cc3cccc(C(=O)O)c3OB2O)c2ccc(P(=O)(O)O)cc2F)C(=O)C1=O (stereo partly drawn) [Example 1, (3R)-3-(2-(4-ethyl-2,3-dioxopiperazine-1-carboxamido)-2-(2-fluoro-4-phosphonophenyl)acetamido)-2-hydroxy-3,4-dihydro-2H-benzo[e][1,2]oxaborinine-8-carboxylic acid] | 1 to 2 (≈ 1.65 to 3.3 µM) | < 1 | < 1 | < 1 | 1 to 2 (≈ 1.65 to 3.3 µM) | < 1 | < 1
4 | NCCN1CCN(C(=O)NC(C(=O)N[C@H]2Cc3cccc(C(=O)O)c3OB2O)c2ccc(P(=O)(O)O)cc2)C(=O)C1=O (stereo partly drawn) [Example 3, (3R)-3-(2-(4-(2-aminoethyl)-2,3-dioxopiperazine-1-carboxamido)-2-(4-phosphonophenyl)acetamido)-2-hydroxy-3,4-dihydro-2H-benzo[e][1,2]oxaborinine-8-carboxylic acid] | 4 to 8 (≈ 6.63 to 13.3 µM) | 4 to 8 (≈ 6.63 to 13.3 µM) | 1 to 2 (≈ 1.66 to 3.32 µM) | 1 to 2 (≈ 1.66 to 3.32 µM) | 4 to 8 (≈ 6.63 to 13.3 µM) | < 1 | < 1
5 | CCN1CCN(C(=O)NC(C(=O)N[C@H]2Cc3cccc(C(=O)O)c3OB2O)c2cc(P(=O)(O)O)ccc2F)C(=O)C1=O (stereo partly drawn) [Example 2, (3R)-3-(2-(4-ethyl-2,3-dioxopiperazine-1-carboxamido)-2-(2-fluoro-5-phosphonophenyl)acetamido)-2-hydroxy-3,4-dihydro-2H-benzo[e][1,2]oxaborinine-8-carboxylic acid] | > 64 | 16 to 32 (≈ 26.4 to 52.8 µM) | 4 to 8 (≈ 6.6 to 13.2 µM) | 4 to 8 (≈ 6.6 to 13.2 µM) | 16 to 32 (≈ 26.4 to 52.8 µM) | < 1 | 4 to 8 (≈ 6.6 to 13.2 µM)
6 | CS(=O)(=O)N1CCN(C(=O)N[C@H](C(=O)N[C@H]2Cc3cccc(C(=O)O)c3OB2O)c2ccc(P(=O)(O)O)cc2)C1=O (single isomer, unassigned) [Example 5] | 4 to 8 (≈ 6.55 to 13.1 µM) | 1 to 2 (≈ 1.64 to 3.28 µM) | < 1 | < 1 | 4 to 8 (≈ 6.55 to 13.1 µM) | < 1 | < 1
